Assay results as given in ChEMBL document CHEMBL4765344, “Expanding the anticancer potential of 1,2,3-triazoles via simultaneously targeting Cyclooxygenase-2, 15-lipoxygenase and tumor-associated carbonic anhydrases” (Eur J Med Chem, 2020).

Columns and labels:
[1] = target: T1, Prostaglandin G/H synthase 1 (Ovis aries, UniProt P05979); experiment: Inhibition of ovine COX1 by colorimetric analysis
T1 sequence (P05979 whole entry): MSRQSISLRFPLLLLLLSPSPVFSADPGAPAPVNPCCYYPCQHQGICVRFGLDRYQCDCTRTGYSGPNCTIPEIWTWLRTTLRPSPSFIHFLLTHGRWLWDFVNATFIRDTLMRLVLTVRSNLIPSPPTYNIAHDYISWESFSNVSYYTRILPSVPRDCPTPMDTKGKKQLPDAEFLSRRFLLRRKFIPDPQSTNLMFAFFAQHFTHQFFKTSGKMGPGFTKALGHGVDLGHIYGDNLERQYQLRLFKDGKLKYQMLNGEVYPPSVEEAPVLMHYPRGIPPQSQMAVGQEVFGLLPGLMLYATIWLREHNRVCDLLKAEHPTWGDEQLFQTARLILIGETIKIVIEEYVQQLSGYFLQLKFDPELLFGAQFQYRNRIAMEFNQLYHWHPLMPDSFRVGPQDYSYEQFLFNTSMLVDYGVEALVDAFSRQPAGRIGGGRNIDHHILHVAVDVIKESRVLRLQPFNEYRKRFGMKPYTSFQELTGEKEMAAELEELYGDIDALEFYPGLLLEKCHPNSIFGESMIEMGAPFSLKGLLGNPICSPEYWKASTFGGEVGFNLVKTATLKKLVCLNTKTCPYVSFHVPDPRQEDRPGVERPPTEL

[2] = Inhibition of soya bean 15-LOX; parameters: species or system Glycine max
[3] = target: Carbonic anhydrase 1 (Homo sapiens, UniProt P00915); experiment: Inhibition of human CA1 by stopped-flow carbon dioxide hydration assay
Sequence of Carbonic anhydrase 1 (P00915 whole entry): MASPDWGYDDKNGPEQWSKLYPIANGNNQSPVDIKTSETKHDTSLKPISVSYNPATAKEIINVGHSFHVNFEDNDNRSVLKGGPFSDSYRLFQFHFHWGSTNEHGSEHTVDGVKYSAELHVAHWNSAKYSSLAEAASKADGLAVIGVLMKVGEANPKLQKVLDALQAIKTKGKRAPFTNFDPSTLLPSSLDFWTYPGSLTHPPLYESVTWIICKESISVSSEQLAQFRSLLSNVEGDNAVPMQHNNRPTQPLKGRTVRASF

[4] = target: Carbonic anhydrase 2 (Homo sapiens, UniProt P00918); experiment: Inhibition of human CA2 by stopped-flow carbon dioxide hydration assay
[5] = target: Carbonic anhydrase 9 (Homo sapiens, UniProt Q16790); experiment: Inhibition of human CA9 by stopped-flow carbon dioxide hydration assay
[6] = target: Carbonic anhydrase 12 (Homo sapiens, UniProt O43570); experiment: Inhibition of human CA12 by stopped-flow carbon dioxide hydration assay
Sequence of Carbonic anhydrase 12 (O43570 whole entry): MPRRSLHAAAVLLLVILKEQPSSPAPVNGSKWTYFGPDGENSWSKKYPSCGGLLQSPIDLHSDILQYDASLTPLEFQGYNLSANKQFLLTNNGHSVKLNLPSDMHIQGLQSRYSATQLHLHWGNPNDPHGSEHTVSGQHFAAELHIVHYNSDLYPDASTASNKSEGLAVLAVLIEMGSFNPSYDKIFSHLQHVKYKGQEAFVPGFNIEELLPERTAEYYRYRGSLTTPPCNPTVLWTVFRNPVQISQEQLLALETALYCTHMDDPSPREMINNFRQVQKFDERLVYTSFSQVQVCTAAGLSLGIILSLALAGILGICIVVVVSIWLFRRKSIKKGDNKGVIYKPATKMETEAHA

[7] = tested on: WI-38; experiment: Cytotoxicity against human WI-38 cells assessed as reduction in cell viability after 72 hrs by SRB assay; format: cell-based; conditions: WI-38, 72 h
[8] = tested on: A549; experiment: Antiproliferative activity against human A549 cells assessed as inhibition of cell growth at 100 microM measured after 72 hrs by SRB assay; format: functional
[9] = tested on: HepG2; experiment: Antiproliferative activity against human HepG2 cells assessed as inhibition of cell growth at 100 microM measured after 72 hrs by SRB assay; format: functional
[10] = tested on: MCF7; experiment: Antiproliferative activity against human MCF-7 cells assessed as inhibition of cell growth at 100 microM measured after 72 hrs by SRB assay; format: functional
[11] = tested on: A549; experiment: Antiproliferative activity against human A549 cells assessed as cell growth inhibition measured after 72 hrs by SRB assay; format: functional, cell-based; conditions: A549, 72 h
[12] = tested on: HepG2; experiment: Antiproliferative activity against human HepG2 cells assessed as cell growth inhibition measured after 72 hrs by SRB assay; format: functional, cell-based; conditions: HepG2, 72 h
[13] = tested on: MCF7; experiment: Antiproliferative activity against human MCF-7 cells assessed as cell growth inhibition measured after 72 hrs by SRB assay; format: functional, cell-based; conditions: MCF7, 72 h
[14] = tested on: MCF7; experiment: Induction of apoptosis in human MCF-7 cells assessed as early apoptotic cells at IC50 measured after 24 hrs by Annexin V-FITC/propidium iodide staining based flow cytometry (reference value: 0.4%); format: functional
[15] = tested on: MCF7; experiment: Induction of apoptosis in human MCF-7 cells assessed as late apoptotic cells at IC50 measured after 24 hrs by Annexin V-FITC/propidium iodide staining based flow cytometry (reference value: […]); format: functional
[16] = tested on: MCF7; experiment: Induction of apoptosis in human MCF-7 cells assessed as necrotic cells at IC50 measured after 24 hrs by Annexin V-FITC/propidium iodide staining based flow cytometry (reference value: 1.27%); format: functional
[17] = tested on: MCF7; experiment: Induction of apoptosis in human MCF7 cells assessed as caspase-9 expression at IC50 by ELISA (reference value: 1.77 +/- 0.1 ng/ml); format: functional
[18] = tested on: MCF7; experiment: Induction of apoptosis in human MCF7 cells assessed as fold change in caspase-9 expression at IC50 by ELISA relative to control; format: functional
[19] = tested on: MCF7; experiment: Induction of apoptosis in human MCF7 cells assessed as Bax expression at IC50 by ELISA (reference value: 45.46 +/- 3.6 pg/ml); format: functional
[20] = tested on: MCF7; experiment: Induction of apoptosis in human MCF7 cells assessed as fold change in Bax expression at IC50 by ELISA relative to control; format: functional
[21] = tested on: MCF7; experiment: Induction of apoptosis in human MCF7 cells assessed as Bcl-2 expression at IC50 by ELISA (reference value: 7.49 +/- 0.1 ng/ml); format: functional
[22] = tested on: MCF7; experiment: Induction of apoptosis in human MCF7 cells assessed as fold change in Bcl-2 expression at IC50 by ELISA relative to control; format: functional
[23] = tested on: HT-29; experiment: Cytotoxicity against human HT-29 cells assessed as reduction in cell viability incubated for 24 hrs by MTS assay; format: functional, cell-based; conditions: HT-29, 24 h
[24] = tested on: THP-1; experiment: Cytotoxicity against PMA/LPS-challenged human THP1 cells assessed as reduction in cell viability incubated for 24 hrs by MTS assay; format: functional, cell-based; conditions: THP-1, 24 h
[25] = tested on: MCF7; experiment: Induction of cell cycle arrest in human MCF7 cells assessed as accumulation at pre-G1 phase at IC50 measured after 24 hrs by propidium iodide/RNase staining based flow cytometry (reference value: 1.96%); format: functional
[26] = tested on: MCF7; experiment: Induction of cell cycle arrest in human MCF7 cells assessed as accumulation at G0/G1 phase at IC50 measured after 24 hrs by propidium iodide/RNase staining based flow cytometry (reference value: 51.72%); format: functional
[27] = tested on: MCF7; experiment: Induction of cell cycle arrest in human MCF7 cells assessed as accumulation at G2/M phase at IC50 measured after 24 hrs by propidium iodide/RNase staining based flow cytometry (reference value: 18.4%); format: functional
[28] = tested on: MCF7; experiment: Induction of cell cycle arrest in human MCF7 cells assessed as accumulation at S phase at IC50 measured after 24 hrs by propidium iodide/RNase staining based flow cytometry (reference value: 29.88%); format: functional
[29] = tested on: MCF7; experiment: Induction of cell cycle arrest in human MCF7 cells assessed as reduction in accumulation at G0/G1 phase at IC50 measured after 24 hrs by propidium iodide/RNase staining based flow cytometry relative to control; format: functional
[30] = tested on: MCF7; experiment: Induction of cell cycle arrest in human MCF7 cells assessed as increase in accumulation at G2/M phase at IC50 measured after 24 hrs by propidium iodide/RNase staining based flow cytometry relative to control; format: functional
[31] = tested on: MCF7; experiment: Induction of cell cycle arrest in human MCF7 cells assessed as increase in accumulation at pre-G1 phase at IC50 measured after 24 hrs by propidium iodide/RNase staining based flow cytometry relative to control; format: functional
[32] = tested on: MCF7; experiment: Induction of apoptosis in human MCF-7 cells assessed as total apoptotic cells at IC50 measured after 24 hrs by Annexin V-FITC/propidium iodide staining based flow cytometry (reference value: 0.69%); format: functional
[33] = tested on: MCF7; experiment: Induction of apoptosis in human MCF-7 cells assessed as increase in total apoptotic cells at IC50 measured after 24 hrs by Annexin V-FITC/propidium iodide staining based flow cytometry relative to 5-FU; format: functional

IC50 [1]: 11.9 µM
IC50 [2]: 1.68 µM
Ki [3]: > 100 µM
Ki [4]: > 100 µM
Ki [5]: > 100 µM
Ki [6]: > 100 µM
IC50 [11]: 8.9 µM
IC50 [12]: 2.37 µM
IC50 [13]: 2.69 µM
SMILES: C/C(=N\Nc1nc(-c2ccc(Cl)cc2)cs1)c1nnn(-c2ccc(Cl)cc2)c1C
IC50 [7]: 379 µM
inhibition at 100 µM [8]: 77.5%
inhibition at 100 µM [9]: 74.4%
inhibition at 100 µM [10]: 91.3%
Activity [14]: 5.88%
Activity [15]: 11.29%
Activity [16]: 2.19%
Activity [17]: 13.02 ng/mL
fold change (FC) [18]: 7.36
Activity [19]: 227.2 pg/mL
fold change (FC) [20]: 4.99
Activity [21]: 4.02 ng/mL
fold change (FC) [22]: 0.54
IC50 [23]: 36.5 µM
IC50 [24]: 133 µM
Activity [25]: 19.36%
Activity [26]: 36.41%
Activity [27]: 38.7%
Activity [28]: 24.89%
fold change (FC) [29]: 1.4
fold change (FC) [30]: 2.1
fold change (FC) [31]: 9.9
Activity [32]: 17.17%
Activity [33]: 70%
